According to patent US8722723B2, “Aromatic amide derivative” (Research Foundation Itsuu Laboratory, priority 2008, dated 2014):

Legend:
luciferase (Luc) = test: Reporter assay: Hela cells transfected with human RORα1 expression vector and luciferase (Luc) reporter vector; Luc activity corrected with β-Gal activity; format: cell-based, firefly; design: key: β-Gal-corrected Luc activity; smaller = inhibition, larger = promotion; settings: human RORα1 expression vector, rev-DR2/TK-Luc reporter, about 1 day, smaller number = inhibitory, larger = promoting
Experimental: The reporter assay was used, in which Hela cells transfected with each of a pcDNA3 vector incorporated with the human RORα1 so that the gene can be expressed in animal cells as an expression vector, and a pGL3 promoter vector of which SV40 promoter was replaced with TK promoter as a luciferase expression reporter vector were used.
The Hela cells were placed at a density of 2×10^4 cells/0.1 mL/well on a 96-well cell culture plate (FALCON) by using 10% FBS-DMEM. On the next day, the human RORα1 expression vector, the reporter vector incorporated with 3 copies of rev-DR2 sequences and the HSV thymidine kinase promoter at a position upstream from the luciferase (Luc) gene, and a β-galactosidase (β-Gal) expression vector for control were introduced into the cells by using a transfection reagent (Fugene6, Roche). On the next day, the medium was replaced with 5% FBS-DMEM containing a test compound diluted at a prescribed concentration, after about 1 day, the cell supernatant was removed, then the cells were lysed (Passive Lysis buffer, Promega), the Luc substrate (PicaGene, Toyo Ink) was added to a part of the lysed cells, and the activity of produced Luc was measured as luminescence intensity. Further, the β-Gal activity was measured as intensity of fluorescence generated when 4-methylumbelliferyl β-D-galactoside was added as a substrate, and the activity of Luc corrected for the transfection efficiency with the β-Gal activity was used as the index for evaluation. A smaller number indicates inhibitory action, and a larger number indicates promoting action.

SMILES	melting point [°C]	activity of Luc corrected for the transfection efficiency with the β-Gal activity (luciferase (Luc); test compound 1 μM)	activity of Luc corrected for the transfection efficiency with the β-Gal activity (luciferase (Luc); test compound 10 μM)	activity of Luc corrected for the transfection efficiency with the β-Gal activity (luciferase (Luc); test compound 0.01 μM)	activity of Luc corrected for the transfection efficiency with the β-Gal activity (luciferase (Luc); test compound 0.1 μM)
CN(C)c1ccc2c(c1)CN(c1ccc(C3CCCCC3)cc1)C2=O [Compound 11, 5-dimethylamino-2-(4-cyclohexyl-phenyl)-isoindol-1-one]	–	2.1	2.6	–	–
CN(C)c1cccc2c1C(=O)N(c1ccccc1)C2 [Compound 13, 7-dimethylamino-2-phenyl-2,3-dihydro-isoindol-1-one]	58 to 60	–	–	–	–
COc1ccc(N2Cc3cccc(N(C)C)c3C2=O)cc1 [Compound 14, 7-dimethylamino-2-(4-methoxyphenyl)-2,3-dihydro-isoindol-1-one]	145 to 146	3.1	2.4	1.9	2.6
CCOC(=O)CCCc1ccc(N2Cc3ccc(N(C)C)cc3C2=O)cc1 [Compound 17, 4-[4-(6-dimethylamino-1-oxo-1,3-dihydro-isoindol-2-yl)-phenyl]-butyric acid ethyl ester]	–	0	0.0	0.2	0
CCOC(=O)CCCc1ccc(N2Cc3ccccc3C2=O)cc1 [Compound 19, 4-[4-(1-oxo-1,3-dihydro-isoindol-2-yl)-phenyl]-butyric acid ethyl ester]	94 to 96	–	–	–	–
O=C(O)CCCc1ccc(N2Cc3ccccc3C2=O)cc1 [Compound 20, 4-[4-(1-oxo-1,3-dihydro-isoindol-2-yl)-phenyl]-butyric acid]	128 to 129	–	–	–	–
CCOC(=O)C=Cc1ccc(N2Cc3ccccc3C2=O)cc1 [Compound 23, 3-[4-(1-oxo-1,3-dihydro-isoindol-2-yl)-phenyl]-acrylic acid ethyl ester]	184 to 185	0.6	0.5	0.8	0.9
O=C(O)C=Cc1ccc(N2Cc3ccccc3C2=O)cc1 [Compound 24, 3-[4-(1-oxo-1,3-dihydro-isoindol-2-yl)-phenyl]-acrylic acid]	–	0.5	0.4	0.9	0.7
COC(=O)COc1ccc(N2Cc3ccc([N+](=O)[O-])cc3C2=O)cc1 [Compound 25, [4-(6-nitro-1-oxo-1,3-dihydro-isoindol-2-yl)-phenoxy]-acetic acid methyl ester]	238 to 239	–	–	–	–
CN(C)c1ccc2c(c1)C(=O)N(c1ccc(CCCC(=O)OC(C)(C)C)cc1)C2 [Compound 31, 4-[4-(6-dimethylamino-1-oxo-1,3-dihydro-isoindol-2-yl)-phenyl]-butyric acid tert-butyl ester]	–	0.1	0.0	0.8	0.4
CCCCCCCNc1cccc2c1CN(c1cc(C)cc(C)c1)C2=O [Compound 33, 2-(3,5-dimethyl-phenyl)-4-heptylamino-2,3-dihydro-isoindol-1-one]	68 to 69	–	–	–	–
CN(C)c1cccc(C(=O)Nc2ccc(CCCC(=O)O)cc2)c1 [Compound 34, 4-[4-(3-dimethylamino-benzoylamino)-phenyl]-butyric acid]	127 to 128	–	–	–	–
CCOC(=O)CCCc1ccc(NC(=O)c2cc([N+](=O)[O-])ccc2C)cc1 [Compound 37, 4-[4-(2-methyl-5-nitro-benzoylamino)-phenyl]-butyric acid ethyl ester]	108 to 109	–	–	–	–
Cc1ccc([N+](=O)[O-])cc1C(=O)Nc1ccc(CCCC(=O)O)cc1 [Compound 38, 4-[4-(2-methyl-5-nitro-benzoylamino)-phenyl]-butyric acid]	172 to 173	–	–	–	–
CCOC(=O)CCCc1ccc(NC(=O)c2cc(C)ccc2[N+](=O)[O-])cc1 [Compound 39, 4-[4-(5-methyl-2-nitro-benzoylamino)-phenyl]-butyric acid ethyl ester]	126 to 127	–	–	–	–

Further lines, with some results ahead:

melting point [°C]	SMILES	activity of Luc corrected for the transfection efficiency with the β-Gal activity (luciferase (Luc); test compound 1 μM)	activity of Luc corrected for the transfection efficiency with the β-Gal activity (luciferase (Luc); test compound 10 μM)	activity of Luc corrected for the transfection efficiency with the β-Gal activity (luciferase (Luc); test compound 0.01 μM)	activity of Luc corrected for the transfection efficiency with the β-Gal activity (luciferase (Luc); test compound 0.1 μM)
160 to 161	CCCc1ccc(N2Cc3cc(N(C)C)ccc3C2=O)cc1 [Compound 1, 5-dimethylamino-2-(4-propyl-phenyl)-isoindol-1-one]	–	–	–	–
141 to 142	CCCc1ccc(N2Cc3ccc(N(C)C)cc3C2=O)cc1 [Compound 2, 6-dimethylamino-2-(4-propyl-phenyl)-isoindol-1-one]	2.8	3.0	–	–
133 to 134	CCCCc1ccc(N2Cc3cc(N(C)C)ccc3C2=O)cc1 [Compound 3, 5-dimethylamino-2-(4-n-butyl-phenyl)-isoindol-1-one]	–	–	–	–
167 to 169	CC(C)c1ccc(N2Cc3cc(N(C)C)ccc3C2=O)cc1 [Compound 5, 5-dimethylamino-2-(4-isopropyl-phenyl)-isoindol-1-one]	–	–	–	–
169 to 170	CC(C)c1ccc(N2Cc3ccc(N(C)C)cc3C2=O)cc1 [Compound 6, 6-dimethylamino-2-(4-isopropyl-phenyl)-isoindol-1-one]	–	–	–	–
133 to 134	CCCCCCCc1ccc(N2Cc3cc(N(C)C)ccc3C2=O)cc1 [Compound 7, 5-dimethylamino-2-(4-n-heptyl-phenyl)-isoindol-1-one]	1.1	1.1	1.0	1.1
101 to 102	CCCCCCCc1ccc(N2Cc3ccc(N(C)C)cc3C2=O)cc1 [Compound 8, 6-dimethylamino-2-(4-n-heptyl-phenyl)-isoindol-1-one]	–	–	–	–
128 to 129	CCCCCCCCc1ccc(N2Cc3cc(N(C)C)ccc3C2=O)cc1 [Compound 9, 5-dimethylamino-2-(4-n-octyl-phenyl)-isoindol-1-one]	–	–	–	–
100 to 101	CCCCCCCCc1ccc(N2Cc3ccc(N(C)C)cc3C2=O)cc1 [Compound 10, 6-dimethylamino-2-(4-n-octyl-phenyl)-isoindol-1-one]	0.3	0.4	0.9	0.7
116 to 117	CCOC(=O)CCCc1ccc(N2Cc3cc(N(C)C)ccc3C2=O)cc1 [Compound 15, 4-[4-(5-dimethylamino-1-oxo-1,3-dihydro-isoindol-2-yl)-phenyl]-butyric acid ethyl ester]	–	–	–	–
179 to 180	CN(C)c1ccc2c(c1)CN(c1ccc(CCCC(=O)O)cc1)C2=O [Compound 16, 4-[4-(5-dimethylamino-1-oxo-1,3-dihydro-isoindol-2-yl)-phenyl]-butyric acid]	–	–	–	–
186 to 187	CN(C)c1ccc2c(c1)C(=O)N(c1ccc(CCCC(=O)O)cc1)C2 [Compound 18, 4-[4-(6-dimethylamino-1-oxo-1,3-dihydro-isoindol-2-yl)-phenyl]-butyric acid]	0.0	0.0	0.1	0
123 to 124	COC(=O)CCc1ccc(N2Cc3ccc(N(C)C)cc3C2=O)cc1 [Compound 21, 3-[4-(6-dimethylamino-1-oxo-1,3-dihydro-isoindol-2-yl)-phenyl]-propionic acid methyl ester]	–	–	–	–
200 to 201	CN(C)c1ccc2c(c1)C(=O)N(c1ccc(CCC(=O)O)cc1)C2 [Compound 22, 3-[4-(6-dimethylamino-1-oxo-1,3-dihydro-isoindol-2-yl)-phenyl]-propionic acid]	–	–	–	–
197 to 198	COC(=O)COc1ccc(N2Cc3ccc(N)cc3C2=O)cc1 [Compound 26, [4-(6-amino-1-oxo-1,3-dihydro-isoindol-2-yl)-phenoxy]-acetic acid methyl ester]	–	–	–	–
167 to 168	COC(=O)COc1ccc(N2Cc3ccc(N(C)C)cc3C2=O)cc1 [Compound 27, [4-(6-dimethylamino-1-oxo-1,3-dihydro-isoindol-2-yl)-phenoxy]-acetic acid methyl ester]	–	–	–	–
